From patent US20210405030A1, “MEANS AND METHODS FOR DETERMINING METABOLIC ADAPTATION” (EnFin GmbH, priority 2018, published 2021)
Read-outs that look alike come from different tables or passages of the source. Square brackets hold non-standard residues; d marks the D form. Ends that are not written are not given here. pY = N[C@@H](Cc1ccc(OP(=O)(O)O)cc1)C(=O)O

Columns and labels:
[1] = system: Healthy blood donor mononuclear lymphocytes; details: for Blood test result: reference interval 2.0±0.3
Text: The cellular model used herein discriminates between an immuno activating environment and an immune suppressive environment. An immuno activating environment comprises supplementation of growth factors/serum and allows growth and survival of blood derived immune cells. An immuno suppressive environment comprises deprivation of growth factors/serum (starvation) and diminishes growth and survival of blood derived immune cells. […] In both conditions a switch to anaerobic glycolysis was induced pharmacologically and proliferation and survival of immune cells was compared to unmodified immune cells.
Healthy blood donor mononuclear lymphocytes were cultured under normoxia (21%) and anoxia (0%). Enzyme activities of PK low affinity (PK la), PK high affinity (PK ha) and Lactate dehydrogenase (LDH) were measured in the homogenates.

PBMCs = assay: Proliferation and survival of PBMCs in immuno activating (10% FCS) or immuno suppressive (starvation) environment (FIG. 1); assay type: cell-based, human; details: for proliferation and survival: GM-CSF 20 ng/ml, HMGB1 variants 200 nM
Method: FIG. 1: Proliferation of PBMCs under the indicated conditions; P-M2 tide: induction of glycolysis by incubation with P-M2 tide; A) control (no activator compound); B) hGM-CSF added; C) to G) HMGB1 or variant thereof added.
To evaluate to what extent and by which agent anerg immune cells could be stimulated we used recombinant human GM-CSF (20 ng/ml, FIG. 1 B) or recombinant/synthetic variants of the immune system stimulating human HMGB1 cytokine (200 nM, FIG. 1 C-G).

GGAVDDD[pY]AQFANGG [P-M2 tide]
Blood test result ([1]; 10% FCS (immuno activating environment) + P-M2 tide): 0.30 | shift from OXPHOS to anaerobic glycolysis ([1]; ex vivo human immune cells, blocking the PK tetramer): enables immune cells to shift from OXPHOS to anaerobic glycolysis | Blood test result ([1]; starvation (immune suppressive environment) + P-M2 tide): 1.37

GM-CSF: human granulocyte monocyte colony stimulating factor, recombinant
proliferation and survival (PBMCs; immuno-suppressed (starved) cells showing a switch to anaerobic glycolysis): fully rescued from cell death and showed increased proliferation (and survival) | proliferation and survival (PBMCs; immuno-suppressed (starved) cells with no switch to anaerobic glycolysis): partly rescued

B1: Wildtype human recombinant HMGB1: high mobility group box 1 protein, immuno-stimulating cytokine and DAMP (SEQ ID NO:3) (protein, listed as Homo sapiens)
chain: MGKGDPKKPRGKMSSYAFFVQTCREEHKKKHPDASVNFSEFSKKCSERWKTMSAKEKGKFEDMAKADKARYEREMKTYIPPKGETKKKFKDPNAPKRPPSAFFLFCSEYRPKIKGEHPGLSIGDVAKKLGEMWNNTAADDKQPYEKKAAKLKEKYEKDIAAYRAKGKPDAAKKGVVKAEKSKKKKEEEEDEEDEEDEEEEEDEEDEDEEEDDDDE
proliferation and survival of immune cells (PBMCs; 200 nM, condition not further specified): failed to increase proliferation and survival
